Laboratory results reported in US20200113902A1, “COMPOSITIONS AND METHODS FOR TREATING CANCERS WITH COVALENT INHIBITORS OF CYCLIN-DEPENDENT KINASE 7 (CDK7)” (Syros Pharmaceuticals, Inc., priority 2017, published 2020).

Legend:
Assay type in all cases: cell-based
[1] = system: homologous recombination deficiency / carboplatin sensitivity genes in A2780 cells; experiment: Nanostring PanCancer Pathways mRNA, A2780; conditions: 50 nM, 16 hours
Description: (§1) Ovarian Cell lines OvCar3, TOV21G, A2780 and COV318 were plated at 500,000 cells/well in a 6-well plate the day before treatment. The next day the cells were treated with vehicle or 50 nM Compound 1 for 0, 6, or 16 hours after which cells were harvested and total RNA collected using RNeasy mini kit (Qiagen). Changes in mRNA between samples were analyzed with Nanostring™ PanCancer Pathways Panels specifically analyzing genes related to homologous recombination deficiency and carboplatin sensitivity (ie. BRCA1, BRCA2, Rad51, ATM, ATR, MSH2, MSH6). Nanostring signal intensities were first normalized to housekeeping genes across all cell lines, and then normalized to the 0 hour timepoint within a cell line.

[2] = system: gene expression in HCC70 cells; experiment: Gene expression profiling via RNA-seq (DESeq2, linear model), HCC70; conditions: four hours, JQ1 125 nM, Compound 1 25 nM
Description: In addition, we compared the ability of JQ1 alone, Compound 1 alone, and a combination of JQ1 and Compound 1 to modify expression of various genes in two breast cancer cell lines. Two triple-negative breast cancer cell lines (HCC70 and MDA-MB468) were tested. The cell lines were treated with JQ1, Compound 1, the JQ1/Compound 1 combination, or DMSO for four hours, after which gene expression profiling via RNA-seq was performed. JQ1 was administered to the cells at a 125 nM final concentration in both single agent and combination experiments. Compound 1 was administered to the cells at a 25 nM final concentration in both single agent and combination experiments. Each experiment was performed in triplicate. One replicate of MDA-MB-468 treated with single-agent JQ1 was excluded from further analysis due to quality.
We employed DESeq2 (Love et al., Genome Biology, 15(12):550, 2014) to identify changes in gene expression due to the JQ1, Compound 1, and JQ1-Compound 1 combination treatment compared to the control DMSO condition based on the RNA-seq data. Genes resulting in a p-value below 0.01 and an absolute logFoldChange above 0.5 were considered to be differentially expressed. […] The same is true for 1459 of 2414 genes in MDA-MB468.
To identify the genes whose expression is impacted synergistically by the drug combination, we modeled the effect of each drug treatment on expression using a linear model. The expression of each gene after the combination treatment can be thought of as the combined impact of Compound 1, JQ1, and any synergistic interaction between the drug treatments on baseline gene expression. A linear model used to describe this relationship could therefore be represented as:
Gene Expression after combination treatment=Baseline Expression+Compound 1 effect+JQ1 effect+Combination effect (Synergistic Impact)
By fitting the expression data for each gene using this model, we were able to evaluate the effect of each treatment, and identify cases where a synergistic interaction between Compound 1 and JQ1 impacts final gene expression. After fitting the linear model to each gene, the weight and p-value of each term can be evaluated. The combination term's weight signifies the mean change resulting from a synergetic impact on expression, with a negative weight indicating synergistic downregulation. Its associated p-value represents the probability that the combination term is not relevant to final gene expression. Using this approach, we identified 1806 genes in HCC70 and 2205 genes in MDA-MB468 whose expression change in the combination treatment was synergistic and whose associated p-value was less than a threshold cutoff of 0.01. The expression of these synergistic genes could not be explained by an additive effect of Compound 1 and JQ1 alone.

[3] = system: homologous recombination deficiency / carboplatin sensitivity genes in OvCar3 cells; experiment: Nanostring PanCancer Pathways mRNA, OvCar3; conditions: 50 nM, 16 hours
Description: as §1

[4] = system: homologous recombination deficiency / carboplatin sensitivity genes in TOV21G cells; experiment: Nanostring PanCancer Pathways mRNA, TOV21G; conditions: 50 nM, 16 hours
Description: as §1

SMILES: CN(C)C/C=C/C(=O)Nc1ccc(C(=O)N[C@@]2(C)CCC[C@@H](Nc3ncc(Cl)c(-c4c[nH]c5ccccc45)n3)C2)nc1 [Compound 1, N-((1S,3R)-3-(5-chloro-4-(1H-indol-3-yl)pyrimidin-2-ylamino)-1-methylcyclohexyl)-5-((E)-4-(dimethylamino)but-2-enamido)picolinamide]
- mRNA of genes related to homologous recombination deficiency and carboplatin sensitivity, all genes except Rad51 (BRCA1, BRCA2, ATM, ATR, MSH2, MSH6) [1]: downregulated
- Average Expression (TPM) GATA3 ([2]; DMSO 32.685): 22.404 TPM
- Average Expression (TPM) FOXC1 ([2]; DMSO 40.481): 25.768 TPM
- Average Expression (TPM) TGIF1 ([2]; DMSO 62.523): 68.293 TPM
- mRNA of genes related to homologous recombination deficiency and carboplatin sensitivity, all genes except Rad51 (BRCA1, BRCA2, ATM, ATR, MSH2, MSH6) [3]: downregulated
- mRNA of genes related to homologous recombination deficiency and carboplatin sensitivity, all genes except Rad51 (BRCA1, BRCA2, ATM, ATR, MSH2, MSH6) [4]: downregulated
